Assay results as given in patent publication US8778631B2, “Mono charging system for selectively introducing non-native amino acids into proteins using an in vitro protein synthesis system” (priority 2009, dated 2014).

Target: T1, PheRS (Escherichia coli, UniProt P08312)
T1 construct: endogenous in cells; host or cells: cell-free extract (lysate) of E. coli strain KGK10
Test: Inhibition of the rate of cell-free synthesis of turboGFP by Phe-SA
Format: biochemical, E. coli
Settings: cell-free synthesis of turboGFPY50TAG with pAF-tRNACUA^Phe
Method: A modified “run-off procedure” was used to prepare the cell-free extract. Fermentation volume to generate sufficient cell-free extract was typically 2.5× the desired cell-free reaction volume. To inactivate the reducing activity of the cell extract, iodoacetamide (IAM) at various concentrations was added as previously described (Yang, Kanter et al. (2004) Biotechnol Prog, 20, 1689-96). Gene expression was under the control of the T7 promoter. In order to facilitate translation initiation, genes were synthesized (DNA 2.0, Menlo Park, Calif.) with synonymous codons at the 5′ end of the gene with ATG start codon (N-terminal methionine residue) optimized for mRNA instability as measured by mRNA ΔGfold in the −6 to +37 positions (Kudla, Murray et al. (2009) Science, 324, 255-258) and rare codons were replaced.
Cell-free reactions were run at 30° C. containing 8 mM magnesium glutamate, 10 mM ammonium glutamate, 130 mM potassium glutamate, 35 mM sodium pyruvate, 1.2 mM AMP, 0.86 mM each of GMP, UMP, & CMP, 2 mM amino acids (1 mM for tyrosine), 4 mM sodium oxalate, 1 mM putrescine, 1.5 mM spermidine, 15 mM potassium phosphate, 100 nM T7 RNA polymerase, 2-50 nM DNA template(s), 1-10 μM E. coli DsbC, and 24-30% (v/v) IAM-treated cell-free extract.

T1 sequence (P07395 whole entry): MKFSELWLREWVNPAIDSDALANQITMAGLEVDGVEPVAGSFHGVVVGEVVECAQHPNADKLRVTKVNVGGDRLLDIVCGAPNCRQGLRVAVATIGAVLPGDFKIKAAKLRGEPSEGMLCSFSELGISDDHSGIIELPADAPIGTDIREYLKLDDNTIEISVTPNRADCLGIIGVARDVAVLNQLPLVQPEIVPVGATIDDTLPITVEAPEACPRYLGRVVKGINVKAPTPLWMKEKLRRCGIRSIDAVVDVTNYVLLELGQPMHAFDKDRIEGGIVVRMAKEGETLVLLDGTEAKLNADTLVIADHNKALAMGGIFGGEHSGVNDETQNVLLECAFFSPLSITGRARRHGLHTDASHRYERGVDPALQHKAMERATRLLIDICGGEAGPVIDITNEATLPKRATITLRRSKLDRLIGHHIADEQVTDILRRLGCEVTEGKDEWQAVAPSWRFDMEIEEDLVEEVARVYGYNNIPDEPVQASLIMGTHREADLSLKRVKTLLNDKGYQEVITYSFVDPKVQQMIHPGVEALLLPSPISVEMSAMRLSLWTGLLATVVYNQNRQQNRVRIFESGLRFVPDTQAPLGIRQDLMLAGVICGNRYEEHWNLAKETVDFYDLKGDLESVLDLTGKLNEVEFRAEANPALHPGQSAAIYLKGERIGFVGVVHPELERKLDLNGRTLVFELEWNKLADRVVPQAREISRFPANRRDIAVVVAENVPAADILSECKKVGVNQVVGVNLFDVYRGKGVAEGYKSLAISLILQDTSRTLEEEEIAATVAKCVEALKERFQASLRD
T1 sequence (P08312 whole entry): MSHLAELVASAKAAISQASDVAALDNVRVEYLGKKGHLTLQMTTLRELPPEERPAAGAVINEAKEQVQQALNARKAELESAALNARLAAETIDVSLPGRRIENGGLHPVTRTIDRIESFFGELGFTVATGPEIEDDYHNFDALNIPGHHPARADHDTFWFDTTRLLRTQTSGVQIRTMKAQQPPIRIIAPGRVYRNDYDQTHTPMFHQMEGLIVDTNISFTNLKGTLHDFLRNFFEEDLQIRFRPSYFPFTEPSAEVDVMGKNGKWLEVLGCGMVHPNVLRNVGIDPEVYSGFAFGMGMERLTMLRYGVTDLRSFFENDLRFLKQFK

Q: For `Nc1ncnc2c1ncn2[C@@H]1O[C@H](COS(=O)(=O)NC(=O)[C@@H](N)Cc2ccccc2)[C@@H](O)[C@H]1O` [Phe-SA, 5′-O—[N-(Phenylalanyl)sulfamoyl]adenosine], which “time after which the inhibitor begins to lose its effectiveness” value is on record?
A: Its value is 7 to 8 h.
